Measurements reported in publication PMC8187479, “Sugar phosphate activation of the stress sensor eIF2B” (Nature Communications, 2021).

Target: T1, eIF2Bα (Homo sapiens, UniProt Q14232)
T1 construct: made in house; host or cells: E. coli BL21(DE3)
T1 sequence (Q14232 1-305): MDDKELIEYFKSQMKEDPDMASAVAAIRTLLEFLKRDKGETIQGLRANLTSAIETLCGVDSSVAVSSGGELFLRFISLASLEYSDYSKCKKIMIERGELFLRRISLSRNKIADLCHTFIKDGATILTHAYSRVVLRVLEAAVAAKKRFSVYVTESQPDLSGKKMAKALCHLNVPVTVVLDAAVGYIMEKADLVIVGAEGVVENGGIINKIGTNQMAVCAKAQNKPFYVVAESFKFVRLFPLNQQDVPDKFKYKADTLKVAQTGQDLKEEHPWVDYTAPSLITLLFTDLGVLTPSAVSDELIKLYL
Assay: MIDAS (mass spectrometry integrated with equilibrium dialysis) metabolite binding screen
Details: MIDAS metabolite binding screen with eIF2Bα; sheet "eIF2Ba"
Summary of the method: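 Hits called at Storey q < 0.1 on z-scores of PCA-corrected log2 fold change between protein and metabolite chambers, quantified by FIA-MS in triplicate.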

Compound | log2(corrected fold change)
CC(=O)N[C@@H]1C(O)O[C@H](CO)[C@@H](O)[C@@H]1O (stereo partly drawn) [N-Acetyl-D-mannosamine] | 0.03658
CC(=O)N[C@@H](CC(=O)O)C(=O)O [N-Acetyl-L-aspartate] | 0.003577
CC(=O)N[C@@H](CCC(=O)O)C(=O)O [N-Acetyl-L-glutamic acid] | 0.006675
CC(=O)N[C@H]1C(O)O[C@H](CO)[C@@H](O)[C@@H]1O[C@H](C)C(=O)O (stereo partly drawn) [N-Acetylmuramic acid] | 0.002532
CC(=O)N[C@H]1[C@H]([C@H](O)[C@H](O)CO)OC(O)(C(=O)O)C[C@@H]1O (stereo partly drawn) [N-Acetylneuraminic acid] | -0.0313
O=C(CO)N[C@H]1[C@H]([C@H](O)[C@H](O)CO)OC(O)(C(=O)O)C[C@@H]1O (stereo partly drawn) [N-Glycolylneuraminic acid] | -0.02217
CCCCCC(=O)NCC(=O)O [N-Hexanoyl-glycine] | -0.05912
CC(C)CC(=O)NCC(=O)O [N-Isovalerylglycine] | -0.07333
NC(=O)C1=CN([C@@H]2O[C@H](COP(=O)(O)OP(=O)(O)OC[C@H]3O[C@@H](n4cnc5c(N)ncnc54)[C@H](O)[C@@H]3O)[C@@H](O)[C@H]2O)C=CC1 [NADH] | 0.1674
NC(=O)c1ccc[n+]([C@@H]2O[C@H](COP(=O)([O-])OP(=O)(O)OC[C@H]3O[C@@H](n4cnc5c(N)ncnc54)[C@H](OP(=O)(O)O)[C@@H]3O)[C@@H](O)[C@H]2O)c1 [NADP] | 0.02005
CC(=O)N[C@@H](CCCCN)C(=O)O [Nalpha-Acetyl-L-lysine] | -0.03422
CC(=O)NCCCC[C@H](N)C(=O)O [Ne-Acetyl-lysine] | -0.03422
NC(=O)c1ccc[n+]([C@@H]2O[C@H](COP(=O)([O-])OP(=O)(O)OC[C@H]3O[C@@H](n4cnc5c(N)ncnc54)[C@H](O)[C@@H]3O)[C@@H](O)[C@H]2O)c1 [Nicotinamide adenine dinucleotide] | -0.063
N[C@@H](COP(=O)(O)O)C(=O)O [O-Phospho-L-serine] | 0.01938
CCCCCCCC(=O)O [Octanoic acid] | -0.007345
CCCCCCCC(=O)SCCNC(=O)CCNC(=O)C(O)C(C)(C)COP(=O)(O)OP(=O)(O)OC[C@H]1O[C@@H](n2cnc3c(N)ncnc32)[C@H](O)[C@@H]1OP(=O)(O)O (stereo partly drawn) [Octanoyl coenzyme A] | 0.3691

Compound | log2(corrected fold change)
CC(C)(CO)[C@@H](O)C(=O)NCCC(=O)O [Pantothenic acid] | 0.0165
NCCc1ccccc1 [Phenethylamine] | -0.07261
CN(CC(=O)O)C(=N)NP(=O)(O)O [Phosphocreatine] | -0.03403
Cc1ncc(COP(=O)(O)O)c(C=O)c1O [Pyridoxal 5-phosphate] | 0.1983
Cc1ncc(CO)c(C=O)c1O [Pyridoxal] | 0.1009
Cc1ncc(COP(=O)(O)O)c(CN)c1O [Pyridoxamine-5-phosphate] | -0.03281
Cc1ncc(CO)c(CN)c1O [Pyridoxamine] | 0.0724
Cc1cc2nc3c(=O)[nH]c(=O)nc-3n(C[C@H](O)[C@H](O)[C@H](O)COP(=O)(O)O)c2cc1C [Riboflavin 5-monophosphate] | 0.06004
C[S+](CC[C@H](N)C(=O)O)C[C@H]1O[C@@H](n2cnc3c(N)ncnc32)[C@H](O)[C@@H]1O (stereo partly drawn) [S-(5-Adenosyl)-L-methionine] | 0.006892
C[C@@H](O)C(=O)SC[C@H](NC(=O)CC[C@H](N)C(=O)O)C(=O)NCC(=O)O [S-Lactoylglutathione] | -0.04124
O=C(O)CCC(=O)O [Succinic acid] | -0.05121
NCCS(=O)(=O)O [Taurine] | -0.01154
Cc1ncc(C[n+]2csc(CCO[P@](=O)(O)OP(=O)(O)O)c2C)c(N)n1 [Thiamine pyrophosphate] | -0.008195
Cc1ncc(C[n+]2csc(CCO)c2C)c(N)n1 [Thiamine] | 0.0196
Cc1cn([C@H]2C[C@H](O)[C@@H](COP(=O)(O)O)O2)c(=O)[nH]c1=O [Thymidine monophosphate] | -0.007923

Same assay, conditions: MIDAS screen, sheet eIF2Ba; metabolites screened in pools 1-4; p-value and q-value given

Compound | log2(corrected fold change)
CC(=O)N[C@@H]1[C@@H](O)[C@H](O)[C@@H](CO)O[C@@H]1O [N-Acetyl-D-glucosamine] | 0.3673
CC(=O)N[C@@H](C)C(=O)O [N-Acetyl-L-alanine] | 0.07527
CC(=O)NCCCCN [N-Acetylputrescine] | -0.2203
O=CNc1ccccc1C(=O)O [N-Formylanthranilic acid] | 0.2026
NC(=O)C1=CN([C@@H]2O[C@H](COP(=O)(O)OP(=O)(O)OC[C@H]3O[C@@H](n4cnc5c(N)ncnc54)[C@H](OP(=O)(O)O)[C@@H]3O)[C@@H](O)[C@H]2O)C=CC1 [NADPH] | -0.8133
NC(=O)c1ccc[n+](C2OC(COP(=O)(O)OP(=O)(O)OCC3OC(n4cnc5c(=O)[nH]cnc54)C(O)C3O)C(O)C2O)c1 (stereo not drawn) [Nicotinamide hypoxanthine dinucleotide] | 0.06307
NC(=O)c1ccc[n+]([C@@H]2O[C@H](COP(=O)([O-])O)[C@@H](O)[C@H]2O)c1 [Nicotinamide ribotide] | 1.511
NC(=O)c1cccnc1 [Nicotinamide] | -0.1042
O=C(O)c1cccnc1 [Nicotinic acid] | -0.1307
CC(=O)O[C@H](CC(=O)[O-])C[N+](C)(C)C [O-Acetyl-L-carnitine] | -0.03661
NCCOP(=O)(O)O [O-Phosphorylethanolamine] | 0.1876
O=C(O)c1cc(=O)[nH]c(=O)[nH]1 [Orotic acid] | 0.07847
O=C(O)CC(=O)C(=O)O [Oxaloacetic acid] | 0.1095
O=C(O)CNC(=O)Cc1ccccc1 [Phenylacetylglycine] | 0.07604
O=C(O)C(=O)Cc1ccccc1 [Phenylpyruvate] | 0.02641
C[N+](C)(C)CCOP(=O)(O)O [Phosphocholine] | -0.0156

Compound | log2(corrected fold change)
NCc1[nH]cc(CCC(=O)O)c1CC(=O)O [Porphobilinogen] | -0.05886
CCC(=O)SCCNC(=O)CCNC(=O)[C@H](O)C(C)(C)COP(=O)(O)OP(=O)(O)OC[C@H]1O[C@@H](n2cnc3c(N)ncnc32)[C@H](O)[C@@H]1OP(=O)(O)O [Propionyl coenzyme A] | 0.4521
CCC(=O)NCC(=O)O [Propionylglycine] | 0.07527
CCCCC[C@H](O)/C=C/[C@H]1C(=O)C[C@H](O)[C@@H]1C/C=C\CCCC(=O)O [Prostaglandin D2] | 0.05625
CCCCC[C@H](O)/C=C/[C@H]1[C@H](O)CC(=O)[C@@H]1C/C=C\CCCC(=O)O [Prostaglandin E2] | 0.05625
CCCCC[C@H](O)/C=C/[C@@H]1[C@H]2C/C(=C/CCCC(=O)O)O[C@H]2C[C@H]1O [Prostaglandin I2] | 0.05625
Cc1ncc(CO)c(CO)c1O [Pyridoxine] | -0.04546
Cc1cc2nc3c(=O)[nH]c(=O)nc-3n(C[C@H](O)[C@H](O)[C@H](O)CO)c2cc1C [Riboflavin] | 0.3728
Nc1ncnc2c1ncn2[C@@H]1O[C@H](CSCC[C@H](N)C(=O)O)[C@@H](O)[C@H]1O [S-(5-Adenosyl)-L-homocysteine] | -0.01949
CNCC(=O)O [Sarcosine] | -0.1398
CC(C)(COP(=O)(O)OP(=O)(O)OC[C@H]1O[C@@H](n2cnc3c(N)ncnc32)[C@H](O)[C@@H]1OP(=O)(O)O)[C@H](O)C(=O)NCCC(=O)NCCSC(=O)CCC(=O)O [Succinyl coenzyme A] | 0.1384
OC[C@H]1O[C@@](CO)(O[C@H]2O[C@H](CO)[C@@H](O)[C@H](O)[C@H]2O)[C@@H](O)[C@@H]1O [Sucrose] | -0.3372
Cc1ncc(C[n+]2csc(CCOP(=O)(O)O)c2C)c(N)n1 [Thiamine monophosphate] | 0.1425
Cc1cn([C@H]2C[C@H](O)[C@@H](COP(=O)(O)OP(=O)(O)OP(=O)(O)O)O2)c(=O)[nH]c1=O [Thymidine 5-triphosphate] | 0.01939
Cc1cn([C@H]2C[C@H](O)[C@@H](CO)O2)c(=O)[nH]c1=O [Thymidine] | 0.1162
Cc1c[nH]c(=O)[nH]c1=O [Thymine] | -0.1153
